According to patent US7449315B2, “Bifunctional energy-reversible acyl-compositions” (Cryolife, Inc., priority 2002, dated 2008):

Key:
Human tPA (Activase) = biological target: T1, Human tPA (Activase) (Homo sapiens, UniProt P00750); test: Inhibition and light reactivation of tPA by Rz-NH-CINN-AP inhibitors, S-2288 chromogenic assay; format: biochemical; conditions: for Inhibition after 16 hrs incubation (%): ambient temperature, dark; for Light Reactivation (%): after blue light
T1 construct: purchased Genentech Inc. Lot # E9034A
Experimental: (§1) R is -tBOC, —H2^+, or mPEG5000. Human thrombin was modified with R—NH-CINN-AP inhibitors as follows: Thrombin (600 units; ˜3.5 nmol) in 50 mM sodium citrate buffer, 3 mM CaCl2, 7% kollidon, pH 7.0, was reacted with 3.5-35 nmol of the R—N-CINN-AP inhibitor for 12-18 hours at ambient temperature in the dark. Thrombin activities were measured under red light (“dark”) and after exposure to 10 seconds of blue light from a dental light and were assayed using S-2238 (diaPharma) at 30° C. Percentage inhibition was calculated as 100—dark activity. Dark activity was calculated as [activitydark÷activitycontrol]×100. Light reactivation was calculated as activitylight÷activtycontrol. The following are typical results.
R2 is -tBOC, —-H2^+, or mPEG5000. The procedures of Examnple 4 was repeated except that Human tPA (Activase, Genentech Inc. Lot # E9034A) was modified with Rz—NH-CINN-AP inhibitors in place of thrombin. The reactions were carried out as follows: tPA (0.83 nmol) in 10 mM tris-HCl, 130 mM NaCl, pH 7.4 was reacted with 0.8 3-8.3 nmoles of the R—NH CINN-AP inhibitors for 12-18 hours at ambient temperature in the dark. Activities were calculated as for Example 4, using S-2288 (diaPharna).

Human thrombin = Human thrombin (Homo sapiens, UniProt P00734); test: Inhibition and light reactivation of thrombin by R-NH-CINN-AP inhibitors, S-2238 chromogenic assay; format: biochemical; conditions: for Inhibition after 16 Hrs Incubation (%): ambient temperature, dark; for Light Reactivation (%): after 10 seconds of blue light, activity light/activity control
Experimental: as §1

[1] = Solubility in aqueous solution after removal of t-BOC; format: physicochemical; conditions: neutralized to pH 7.0
Experimental: 3-[2-hydroxy-4-(ethyl)(2-tert-butyloxycarbamidoethyl)amino]phenyl-2-methylpropenoic acid, 4-aminoiminophenyl ester, HCl salt (15; 12 mg, 25 μmmol) was suspended in 1.2 ml of 3N HCl and mixed by inversion for 3 hours at ambient temperature to release the t-BOC group and generate 3-[2-hydroxy-4-(ethyl) aminoethyl)amino]phenyl-2-methylpropenoic acid, 4-aminoiminophenyl ester, HCl salt (16; N-CINN-AP). After 3 hours, the reaction was neutralized with 3N NaOH to give a final pH of 7.0.

T1 sequence (P00750 36-562): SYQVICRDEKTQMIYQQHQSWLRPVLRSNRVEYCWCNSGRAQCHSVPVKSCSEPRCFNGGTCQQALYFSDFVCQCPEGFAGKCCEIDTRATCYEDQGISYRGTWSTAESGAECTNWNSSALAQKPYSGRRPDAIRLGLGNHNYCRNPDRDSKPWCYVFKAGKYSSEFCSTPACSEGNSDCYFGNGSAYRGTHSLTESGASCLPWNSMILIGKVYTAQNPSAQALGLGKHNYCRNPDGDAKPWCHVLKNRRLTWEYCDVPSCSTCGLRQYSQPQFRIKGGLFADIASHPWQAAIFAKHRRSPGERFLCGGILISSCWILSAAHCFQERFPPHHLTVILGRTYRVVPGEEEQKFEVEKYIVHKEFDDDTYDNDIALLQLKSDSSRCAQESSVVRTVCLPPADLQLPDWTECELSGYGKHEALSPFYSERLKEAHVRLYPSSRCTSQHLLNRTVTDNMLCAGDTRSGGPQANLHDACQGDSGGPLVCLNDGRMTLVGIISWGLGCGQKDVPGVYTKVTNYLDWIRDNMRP

Compound | Inhibition after 16 hrs incubation (%) (Human tPA (Activase); inhibitor excess 5×) | Light Reactivation (%) (Human tPA (Activase); inhibitor excess 10×) | Inhibition after 16 hrs incubation (%) (Human tPA (Activase); inhibitor excess 10×) | Inhibition after 16 Hrs Incubation (%) (Human thrombin; inhibitor excess 1×) | Inhibition after 16 Hrs Incubation (%) (Human thrombin; inhibitor excess 5×) | Light Reactivation (%) (Human thrombin; inhibitor excess 10×) | Inhibition after 16 Hrs Incubation (%) (Human thrombin; inhibitor excess 10×) | tPA inhibition (in words) (Human tPA (Activase); Table 2) | Thrombin inhibition (in words) (Human thrombin; summary of Table 1) | Solubility (in words) [1]
CCN(CCNC(=O)OC(C)(C)C)c1ccc(C=C(C)C(=O)Oc2ccc(C(=N)N)cc2)c(O)c1.Cl [#15, 3-[2-hydroxy-4-(ethyl)(2-tert-butyloxycarbamidoethyl)amino]-phenyl-2-methylpropenoic acid, 4-aminoiminophenyl ester, HCl salt] | 95% | 87% | 95% | 94% | 98% | 72% | 97% | – | – | –
CCN(CCN)c1ccc(C=C(C)C(=O)Oc2ccc(C(=N)N)cc2)c(O)c1.Cl [#16] | 78% | 78% | 88% | 21% | 70% | 64% | 96% | less effective inhibitor at lower molar ratios | less effective inhibitor at lower molar ratios | soluble in aqueous solution
